Type in all cases: binding
Details in all cases: Compound Concentration 10 µM

The target in assay [1] is T1, panel of 442 kinases (Homo sapiens, UniProt Q9BQI3).
T1 construct: purchased KINOMEscan
From the text:
(§1) We assessed the selectivity of members of this scaffold using the KINOMEscan methodology across a near comprehensive panel of 442 kinases [[18,27]].

Assay [2] deals with T2, panel of 442 kinases (Homo sapiens, UniProt Q9HCP0).
T2 construct: purchased KINOMEscan
Text: as §1

The target in assay [3] is T3, panel of 442 kinases (Homo sapiens, UniProt P00533, L858R).
T3 construct: purchased KINOMEscan
T3 sequence (P00533 25-1210 L858R): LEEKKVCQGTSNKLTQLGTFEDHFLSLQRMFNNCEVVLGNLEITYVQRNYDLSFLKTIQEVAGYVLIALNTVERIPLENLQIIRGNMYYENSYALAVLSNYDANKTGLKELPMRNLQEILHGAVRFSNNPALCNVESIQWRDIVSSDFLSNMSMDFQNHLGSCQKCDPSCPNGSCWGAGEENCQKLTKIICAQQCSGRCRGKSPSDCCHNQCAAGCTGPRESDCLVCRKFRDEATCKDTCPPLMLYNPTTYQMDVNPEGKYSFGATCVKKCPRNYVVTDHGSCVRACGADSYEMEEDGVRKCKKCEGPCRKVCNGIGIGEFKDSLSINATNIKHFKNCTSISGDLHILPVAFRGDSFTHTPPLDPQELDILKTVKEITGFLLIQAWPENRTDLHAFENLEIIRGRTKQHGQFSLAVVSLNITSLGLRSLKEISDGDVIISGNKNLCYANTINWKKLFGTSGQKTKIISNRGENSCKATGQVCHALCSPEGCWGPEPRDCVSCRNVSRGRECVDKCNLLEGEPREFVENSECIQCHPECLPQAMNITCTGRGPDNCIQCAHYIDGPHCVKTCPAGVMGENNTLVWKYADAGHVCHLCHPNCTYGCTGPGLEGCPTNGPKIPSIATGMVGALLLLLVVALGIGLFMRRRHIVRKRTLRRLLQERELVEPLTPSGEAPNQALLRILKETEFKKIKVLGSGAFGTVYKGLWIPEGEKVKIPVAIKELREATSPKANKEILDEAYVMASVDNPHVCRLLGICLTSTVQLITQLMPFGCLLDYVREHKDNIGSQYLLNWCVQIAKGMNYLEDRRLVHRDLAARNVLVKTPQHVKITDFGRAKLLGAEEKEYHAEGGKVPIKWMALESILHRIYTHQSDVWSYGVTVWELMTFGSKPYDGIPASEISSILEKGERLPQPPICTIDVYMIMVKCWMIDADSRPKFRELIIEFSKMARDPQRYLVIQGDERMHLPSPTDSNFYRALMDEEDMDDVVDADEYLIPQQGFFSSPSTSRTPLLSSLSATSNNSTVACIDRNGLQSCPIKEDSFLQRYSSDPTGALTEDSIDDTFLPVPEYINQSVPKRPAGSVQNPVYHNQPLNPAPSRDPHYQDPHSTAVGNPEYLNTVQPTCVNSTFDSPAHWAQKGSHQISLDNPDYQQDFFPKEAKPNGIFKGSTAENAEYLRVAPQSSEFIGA
Text: as §1

For assay [4], the target named is T4, panel of 442 kinases (Homo sapiens, UniProt P23458).
T4 construct: purchased KINOMEscan
T4 sequence (P23458 whole entry): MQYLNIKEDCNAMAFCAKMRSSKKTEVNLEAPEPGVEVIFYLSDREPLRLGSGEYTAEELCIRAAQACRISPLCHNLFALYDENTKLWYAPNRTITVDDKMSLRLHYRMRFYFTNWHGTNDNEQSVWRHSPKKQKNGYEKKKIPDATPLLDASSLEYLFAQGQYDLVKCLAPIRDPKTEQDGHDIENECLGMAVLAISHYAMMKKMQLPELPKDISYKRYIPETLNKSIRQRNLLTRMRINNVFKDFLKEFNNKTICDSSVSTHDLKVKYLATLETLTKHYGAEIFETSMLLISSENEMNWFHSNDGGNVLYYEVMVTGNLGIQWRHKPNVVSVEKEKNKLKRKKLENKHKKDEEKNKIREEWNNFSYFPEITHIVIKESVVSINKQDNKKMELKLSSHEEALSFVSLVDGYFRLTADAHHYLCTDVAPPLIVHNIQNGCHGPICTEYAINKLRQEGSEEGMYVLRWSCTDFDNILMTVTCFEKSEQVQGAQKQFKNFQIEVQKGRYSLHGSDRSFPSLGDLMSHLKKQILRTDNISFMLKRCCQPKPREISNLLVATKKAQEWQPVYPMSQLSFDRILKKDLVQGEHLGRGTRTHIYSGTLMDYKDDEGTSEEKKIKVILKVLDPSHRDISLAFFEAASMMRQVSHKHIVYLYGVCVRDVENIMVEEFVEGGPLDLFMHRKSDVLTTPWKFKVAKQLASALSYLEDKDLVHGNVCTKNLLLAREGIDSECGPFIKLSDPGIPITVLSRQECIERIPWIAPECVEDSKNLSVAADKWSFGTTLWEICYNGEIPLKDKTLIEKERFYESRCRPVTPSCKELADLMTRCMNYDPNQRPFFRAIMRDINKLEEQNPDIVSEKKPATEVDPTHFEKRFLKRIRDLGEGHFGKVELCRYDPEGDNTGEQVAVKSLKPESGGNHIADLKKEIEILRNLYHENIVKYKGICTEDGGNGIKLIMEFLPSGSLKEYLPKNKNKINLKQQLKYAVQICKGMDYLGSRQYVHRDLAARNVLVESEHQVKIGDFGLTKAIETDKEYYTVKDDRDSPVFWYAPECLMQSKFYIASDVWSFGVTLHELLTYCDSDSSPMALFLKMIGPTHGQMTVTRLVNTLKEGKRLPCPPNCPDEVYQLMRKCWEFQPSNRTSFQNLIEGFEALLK
Text: as §1

T2 sequence (Q9HCP0 whole entry): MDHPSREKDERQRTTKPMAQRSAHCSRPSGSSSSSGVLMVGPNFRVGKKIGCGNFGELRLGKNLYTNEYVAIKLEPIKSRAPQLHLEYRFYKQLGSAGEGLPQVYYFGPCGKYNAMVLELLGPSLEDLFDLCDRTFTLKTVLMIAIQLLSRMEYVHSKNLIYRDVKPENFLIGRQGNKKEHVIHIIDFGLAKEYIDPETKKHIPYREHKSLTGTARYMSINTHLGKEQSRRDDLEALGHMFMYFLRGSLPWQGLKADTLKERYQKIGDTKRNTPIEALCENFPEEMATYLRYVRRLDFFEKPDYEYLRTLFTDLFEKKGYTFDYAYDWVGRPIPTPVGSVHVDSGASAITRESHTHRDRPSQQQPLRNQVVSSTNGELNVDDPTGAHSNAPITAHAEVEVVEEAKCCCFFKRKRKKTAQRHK
T1 sequence (Q9BQI3 whole entry): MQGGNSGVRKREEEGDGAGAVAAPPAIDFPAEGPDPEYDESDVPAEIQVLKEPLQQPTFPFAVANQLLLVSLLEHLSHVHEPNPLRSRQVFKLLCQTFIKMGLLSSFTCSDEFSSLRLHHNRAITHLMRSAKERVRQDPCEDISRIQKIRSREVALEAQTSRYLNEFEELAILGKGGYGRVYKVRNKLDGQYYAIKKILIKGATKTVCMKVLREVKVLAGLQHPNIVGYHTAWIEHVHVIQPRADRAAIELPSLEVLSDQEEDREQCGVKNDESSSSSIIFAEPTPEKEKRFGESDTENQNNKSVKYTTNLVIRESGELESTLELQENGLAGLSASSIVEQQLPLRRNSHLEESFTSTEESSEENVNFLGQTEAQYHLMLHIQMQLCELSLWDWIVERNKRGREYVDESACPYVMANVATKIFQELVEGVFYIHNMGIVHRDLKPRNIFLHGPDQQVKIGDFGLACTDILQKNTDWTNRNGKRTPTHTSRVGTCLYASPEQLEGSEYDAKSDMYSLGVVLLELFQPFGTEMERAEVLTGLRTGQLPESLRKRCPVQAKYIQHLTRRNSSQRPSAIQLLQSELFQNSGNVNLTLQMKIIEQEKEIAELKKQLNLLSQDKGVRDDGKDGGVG

As for `COc1cc(C(=O)N2CCC(N3CCN(C)CC3)CC2)ccc1Nc1ncc2c(n1)N(C1CCCC1)c1ccccc1C(=O)N2C` [Compound 25, 11-cyclopentyl-2-((2-methoxy-4-(4-(4-methylpiperazin-1-yl)piperidine-1-carbonyl)phenyl)amino)-5-methyl-5H-benzo[e]pyrimido[5,4-b][1,4]diazepin-6(11H)-one], the “KINOMEscan: EIF2AK1” value in assay [1] is reported as 100. For the same compound, in assay [2], the “KINOMEscan: CSNK1G1” value came to 73. Besides, the “KINOMEscan: EGFR(L858R)” value in assay [3] was 83. Further, in assay [4], the “KINOMEscan: JAK1(JH1domain-catalytic)” value worked out at 100 and the “KINOMEscan: JAK1(JH2domain-pseudokinase)” value is 100.

With `COc1cc(C(=O)N2CCC(N3CCN(C)CC3)CC2)ccc1Nc1ncc2c(n1)N1CCc3cccc(c31)C(=O)N2C` [Compound 24], the “KINOMEscan: EGFR(L858R)” value in assay [3] came out at 62. The “KINOMEscan: JAK1(JH2domain-pseudokinase)” value in assay [4] was 62.

On to `COc1cc(C(=O)N2CCC(N3CCN(C)CC3)CC2)ccc1Nc1ncc2c(n1)N(C)c1ccccc1C(=O)N2C` [15 (LRRK2-IN-1)], for which, in assay [1], the “KINOMEscan: EIF2AK1” value worked out at 100. Further, the “KINOMEscan: CSNK1G1” value in assay [2] was determined as 100. Besides, the “KINOMEscan: EGFR(L858R)” value in assay [3] came to 79. In assay [4], the “KINOMEscan: JAK1(JH1domain-catalytic)” value was found to be 100 and the “KINOMEscan: JAK1(JH2domain-pseudokinase)” value was determined as 92.

For `CCOc1cc(C(=O)N2CCC(N3CCN(C)CC3)CC2)ccc1Nc1ncc2c(n1)N(C1CCCC1)c1ccccc1C(=O)N2C` [Compound 26], the “KINOMEscan: EIF2AK1” value in assay [1] was 100. Further, the “KINOMEscan: CSNK1G1” value in assay [2] was determined as 98. Moreover, the “KINOMEscan: EGFR(L858R)” value in assay [3] is reported as 100. In assay [4], the “KINOMEscan: JAK1(JH1domain-catalytic)” value was 100 and the “KINOMEscan: JAK1(JH2domain-pseudokinase)” value is listed as 98.
